According to patent publication US10017463B2, “Inhibitors of deubiquitinating proteases” (Brandeis University, priority 2014, dated 2018):

What was measured:
[1] = test system: DUBs other than USP9x, most notably UCHL5; experiment: HA-Ubiquitin-Vinylsulfone activity profiling, other DUBs; assay type: biochemical; details: for inhibition of other DUBs other than USP9x: at 85 μM; for inhibition of other DUBs: below 25 μM
Protocol: Lysate labeling assay on untransfected cells (1.5 mg/mL lysate lysed using a Dounce homogenizer, 10 strokes, in 75 mM potassium phosphate pH 7.6, 150 mM NaCl, 0.75 mM BME) was run with the stated concentration of inhibitor (or 1% DMSO control) for 30 min. After this time HA-Ub-VS (1.5 μM) was added and incubated for 15 min. After this time reaction mixture (15 μL) was removed and quenched in 2× (final concentration) reducing Laemeli buffer. The reaction mixtures were heated to 37° C. for 10 min prior to analysis by western blot for HA. […] EC50s calculated by this method were in agreement with those found in the HA-blot.

[2] = target: T1, USP7 catalytic domain (USP7CD) (Homo sapiens, UniProt Q93009); experiment: USP7 catalytic domain, Cy5-Ub-VME activity profiling; assay type: biochemical; details: at 12.5 μM
T1 construct: USP7 catalytic domain (USP7CD)
Protocol: Panel A is an image showing that purified recombinant USP9x (7 nM) was treated with the stated compound at 50 μM for 19 min prior to addition of Cy5-Ub-VME for 5 min, then the mixture was resolved by S.D.S-PAGE and analyzed on a typhoon imager. Panel B is an image of an immunoblot showing purified recombinant USP9x (7 nM) and USP7CD (20 nM) were treated with the stated compound at the stated concentration for 19 min prior to addition of Cy5-Ub-VME for 5 min then the mixture was resolved by S.D.S-PAGE and analyzed on a Typhoon imager.
In addition, the amount of free inhibitor is unknown and thus the true kon could be much higher.

HeLa cells = experiment: Annexin V-FITC/PI apoptosis assay, HeLa; assay type: cell-based; details: 15 or 30 μM, 24 h
Protocol: (each point is shown as mean+/−s.d. of 2 replicates). Panel A is a bar graph showing the data for HeLa cells (30 μM); Panel B is a bar graph showing the data for K562 (30 μM); Panel C is a bar graph showing the data for K562 (15 μM).
Since K562 cells are dependent upon Bcr-Abl for survival, it was predicted that these cells would also be susceptible to TU compounds. However, K562 cells gave a very weak signal in the Alamar Blue® assay. In lieu of the Alamar Blue assay, an apoptosis assay was used to show susceptibility. This assay uses fluorescein-modified Annexin V to detect phosphatidyl serine (PS) on the cell surface. See Vermes et al., J. Immon. Meth. 184, 39-51 (1995). PS is typically expressed on the inner leaflet of the cell membrane. However in the early stages of apoptosis, PS translocates to the outer leaflet and can be bound by Annexin V. Thus, during apoptosis cells will become greener in the presence of Annexin V-Fluorescine.

Bcr-Abl [3] = experiment: Bcr-Abl immunoblot in BaF3/p210 cells; assay type: cell-based, murine; details: 4 h
Protocol: After this time cells were lysed and sonicated in S.D.S. Whole cell lysates were analyzed for Bcr-Abl and tubulin in triplicate. Panel B is a bar graph showing the quantitation of blots in Panel A. Panel C is an image of an immunoblot showing BaF3 cells were treated with various concentrations of TU50 in triplicate for 4 h, and then whole cell lysates were analyzed for Bcr-Abl and tubulin. Panel D is an image of an immunoblot similar to the experiment in Panel C but using TU46. Panel E is an image of an immunoblot similar to the experiment in Panel D but using TU49. Panel F is a plot showing the quantification of blots in Panel C, Panel D, and Panel E.
Proliferation inhibition/apoptosis assays and lysate activity profiling were all consistent with USP9x inhibition. Next, whether cell death in BaF3/p210 cells occurred through degradation of Bcr-Abl was validated. […] Encouragingly, the EC50 for Bcr-Abl degradation was 8±2 μM for TU50, which is within 2 fold of the proliferation inhibition EC50 obtained above (FIG. 7, Panel C).

Bcr-Abl [4] = experiment: Bcr-Abl immunoblot in K562 cells; assay type: cell-based; details: for decrease in Bcr-Abl: 30 μM, 4 h
Protocol: After this time cells were lysed and sonicated in SDS. Whole cell lysates were analyzed for Bcr-Abl and tubulin in triplicate. Panel B is a bar graph showing the quantitation of the blots in Panel A. Panel C is a plot showing differing concentrations of TU50 were added to K562 cells and after 4 h the amount of Bcr-Abl was measured in whole cell lysates.

MCL1 = MCL1 immunoblot in BaF3 parent cells; assay type: cell-based; details: 15 and 30 μM, 4 h
Source text: Panel A is an image of a immunoblot showing knockdown of MCL-1 by TU46. […] Panel C is a bar graph showing the quantitation of the blots in Panel A and Panel B.
MCL1 is required to sustain growth of many transformed cells and is also regulated by USP9x. […] These findings help to explain why these compounds are toxic to Bcr-Abl independent cancer lines, especially BaF3.

DUBs = experiment: Cy5-Ub-VME activity profiling of treated BaF3/p210 cells; assay type: cell-based, murine; details: 50 μM, 4 h
Protocol: FIG. 9 has two panels (A and B) depicting data showing that TUs inhibit DUBs in cells. BaF3/p210 cells were incubated with the stated concentration of compound for 4 h. After this time cells were lysed using beads, lysates were normalized, then exposed to Cy5-Ub-VME for 5 min. After quenching, lysates were resolved by SDS-PAGE, analyzed on typhoon, then stained by Coomassie. Panel A is an image of the SDS-PAGE gel visualized via Typhoon imager. Panel B is an image of the SDS PAGE gel stained with Coomassie.
Panel A is the chemical structure of TU71. Panel B is an image of an immunoblot showing a K562 cell was treated with TU71 for 15 min at which time HAUb-VS was added. After an additional 15 min, aliquots were quenched in reducing loading buffer and analyzed by SDS-PAGE and HA blot. […] BaF3/p21 0 cells were treated with TU71 for 2.5 h (Panel C) or 4 h (Panel D). Cells were harvested, lysed and incubated (0.7 mg/mL protein) with 250 nM Cy5-UbVME for 5 min at 37° C. […] Panel E is an image of an immunoblot showing BaF3/p210 cells were incubated with TU71 for 4 h. The cells were harvested, lysed, analyzed by SDS-PAGE and immunoblotted as indicated. “cPARP” indicates the caspase cleavage of product of PARP and is indicative of apoptosis. Panel F is a bar graph showing data representative of mean±range of two independent experiments, one performed in duplicate of the blot depicted in Panel E.
The increased promiscuity of the inhibitors when the experiment is carried out in cells likely stems from the increased assay time (4 h vs 20 min) coupled with the slow on rates of the inhibitors and their targets.

3T3 = experiment: Proliferation assay, 3T3; details: Mus musculus, NIH3T3, 72 h, read-out: EC50 growth inhibition 3T3
Protocol: (§1) Proliferation assays for adherent cells were conducted by plating cells at 5%-10% confluence in 96 well plates together with compound or 0.1% DMSO. Cells were allowed to grow for 48 h and then Alamar Blue® was added and number of cells was measured by fluorescence on a microplate reader.

B16-F10 = experiment: Proliferation assay, B16-F10; details: Mus musculus, B16-F10, 72 h, read-out: EC50 growth inhibition B16-F10
Protocol: as §1

[5] = whole cell lysates sonicated, read-out: EC50 for Bcr-Abl degradation/knockdown

T1 sequence (Q93009 214-521 limits assumed, species assumed): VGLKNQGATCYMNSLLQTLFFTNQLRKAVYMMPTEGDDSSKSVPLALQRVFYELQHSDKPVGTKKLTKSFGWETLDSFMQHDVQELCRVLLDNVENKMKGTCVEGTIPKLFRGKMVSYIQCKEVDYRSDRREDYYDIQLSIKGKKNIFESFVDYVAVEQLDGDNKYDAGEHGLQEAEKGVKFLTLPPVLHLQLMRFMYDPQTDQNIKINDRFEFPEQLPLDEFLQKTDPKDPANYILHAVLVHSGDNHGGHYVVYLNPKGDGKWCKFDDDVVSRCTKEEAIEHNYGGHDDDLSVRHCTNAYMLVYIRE

| Structure (SMILES) | inhibition of other DUBs other than USP9x [1] | inhibition of other DUBs [1] | inhibition of USP7CD [2] | apoptosis in HeLa (HeLa cells) | EC50 (Bcr-Abl [3]; unsonicated, read-out: EC50 for Bcr-Abl knockdown) [µM] | EC50 (Bcr-Abl [3]; [5]) [µM] | decrease in Bcr-Abl (Bcr-Abl [4]) | knockdown of MCL1 (MCL1) | Cy5-Ub-VME labelled bands after treatment of cells (DUBs) | EC50 (3T3) [µM] | EC50 (B16-F10) [µM] | EC50 (Bcr-Abl [4]; K562, 4 h, read-out: EC50 for Bcr-Abl degradation) [µM] |
| --- | --- | --- | --- | --- | --- | --- | --- | --- | --- | --- | --- | --- |
| CC(C)(C)OC(=O)NCCc1ccc(N=C=S)cc1 [TU46] | weak inhibition | little inhibition | little inhibition | no apoptosis was detected | 15 ± 7 | 9 ± 3 | four-fold decrease | very effective | decrease in a number of bands in addition to the band corresponding to USP9x | > 110 | 70 ± 20 | – |
| O=C(NCc1ccc(N=C=S)cc1)OCc1ccccc1 [TU49] | weak inhibition | little inhibition | little inhibition | no apoptosis was detected | – | 9 ± 5 | four-fold decrease | not as efficient | decrease in a number of bands in addition to the band corresponding to USP9x | > 110 | ~30 | – |
| CC(C)(C)OC(=O)NCc1cccc(N=C=S)c1 [TU50] | weak inhibition | little inhibition | little inhibition | no apoptosis was detected | – | 8 ± 2 | four-fold decrease | very effective | decrease in a number of bands in addition to the band corresponding to USP9x | 80 ± 10 | 85 ± 10 | 12 |
